In ChEMBL document CHEMBL1157827, “The synthesis and biological evaluation of quinolyl-piperazinyl piperidines as potent serotonin 5-HT1A antagonists” (J Med Chem, 2010):
Activity calls are given as the source filed them. No cut-off for these calls is given here.

Experiments:
Rattus norvegicus [1] = assay: Enhancement of fluoxetine-induced inhibition of olfactory bulbectomy-mediated hyperlocomotor activity in Sprague-Dawley rat at 10 mg/kg, po coadministered with fluoxetine QD for 7 days measured after 14 days post-surgery; format: functional, organism-based; set-up: dose 10 mg/kg
[2] = Volume of distribution at steady state in Sprague-Dawley rat at 1 mg/kg, iv administered as single dose by LC/MS/MS analysis; format: ADME, organism-based; set-up: dose 1 mg/kg, route intravenous; details: in vivo, read-out: Vdss
Rattus norvegicus [3] = assay: Inhibition of fluoxetine-induced decrease in noncontact penile erection in Sprague-Dawley rat at 10 mg/kg, po coadministered with fluoxetine; format: functional, organism-based; set-up: dose 10 mg/kg
Rattus norvegicus [4] = assay: Effect on serotonin release in Sprague-Dawley rat cortex at 10 mg/kg, po after 40 mins microdialysis assay; format: functional, organism-based; set-up: dose 10 mg/kg
Rattus norvegicus [5] = assay: Effect on obsessive compulsive behavior in po dosed Sprague-Dawley rat assessed as enhancement of fluoxetine-induced inhibition of polydipsia stimulated by food intake of a schedule of every 2 minutes for 2 hrs administered 30 mins before fluoxetine challenge measured after 30 mins; format: functional, organism-based
[6] = Ratio of drug level in brain to plasma in Sprague-Dawley rat at 3 mg/kg, po administered as single dose; format: ADME, organism-based; set-up: dose 3 mg/kg, route oral; details: read-out: BPR
Rattus norvegicus [7] = assay: Increase in acetylcholine level in Sprague-Dawley rat dorsal hippocampus at 10 mg/kg, po after 40 to 200 mins microdialysis assay; format: functional, organism-based; set-up: dose 10 mg/kg
[8] = Tmax in Sprague-Dawley rat at 3 mg/kg, po administered as single dose by LC/MS/MS analysis; format: ADME, organism-based; set-up: dose 3 mg/kg, route oral; details: in vivo
in vitro [9] = details: human, liver microsomes
Description: Half life in human liver microsomes at 1 uM after 20 mins

Rattus norvegicus [10] = assay: Effect on obsessive compulsive behavior in Sprague-Dawley rat assessed as inhibition of polydipsia stimulated by food intake of a schedule of every 2 minutes for 2 hrs at 5.6 mg/kg, ip after 30 mins; format: functional, organism-based; set-up: dose 5.6 mg/kg
Mus musculus = assay: Cognitive enhancing effect in po dosed transgenic 2576 mouse overexpressing human APP K670N/M671L double mutant assessed as minimal effective dose for enhancement of contextual memory measured after 1 hr by contextual fear conditioning assay; format: functional; details: read-out: MED
Rattus norvegicus [11] = assay: Cognitive enhancing effect in Long-Evans rat assessed as increase in dwell time within trigger zone during acquisition training at 10 mg/kg, po by atlantis water maze test; format: functional, organism-based; set-up: dose 10 mg/kg
Rattus norvegicus [12] = assay: Cognitive enhancing effect in po dosed Long-Evans rat assessed as minimal effective dose for reversal of scopolamine-induced memory deficit administered 30 mins prior to MK801 challenge measured after 1 hr by novel object recognition test; format: functional; details: read-out: MED
Rattus norvegicus [13] = assay: Inhibition of fluoxetine-induced decrease in noncontact penile erection in Sprague-Dawley rat at 10 mg/kg, po coadministered with fluoxetine QD for 14 days measured after day 14; format: functional, organism-based; set-up: dose 10 mg/kg
in vitro [14] = details: rat, liver microsomes
Description: Half life in rat liver microsomes at 1 uM after 20 mins

Rattus norvegicus [15] = assay: (§1) Oral bioavailability in Sprague-Dawley rat at 3 mg/kg administered as single dose by LC/MS/MS analysis; format: ADME, organism-based; details: in vivo
Rattus norvegicus [16] = assay: Effect on obsessive compulsive behavior in Sprague-Dawley rat assessed as inhibition of polydipsia stimulated by food intake of a schedule of every 2 minutes for 2 hrs at 10 mg/kg, po after 30 mins; format: functional, organism-based; set-up: dose 10 mg/kg
Rattus norvegicus [17] = assay: Enhancement of fluoxetine-induced inhibition of polydipsia stimulated by food intake of a schedule of every 2 minutes for 2 hrs in Sprague-Dawley rat assessed as minimal effective dose administered 30 mins before fluoxetine challenge measured after 30 mins; format: functional; details: read-out: MED
Rattus norvegicus [18] = assay: In vivo receptor occupancy of 5HT1A receptor Long-Evans rat frontal cortex at 0.1 to 10 mg/kg, po by [3H]WAY100635 displacement assay; format: functional; details: dose mg/kg 0.1-10
Rattus norvegicus [19] = assay: Induction of sexual dysfunction in Sprague-Dawley rat assessed as decrease in noncontact penile erection at 10 mg/kg, ip QD for 14 days measured after day 14; format: organism-based; set-up: dose 10 mg/kg, route intraperitoneal; scale not given: the % may be the effect or the level left; details: in vivo, 336 h
Rattus norvegicus [20] = assay: Antidepressant activity in Sprague-Dawley rat assessed as inhibition of olfactory bulbectomy-induced hyperlocomotor activity at 5.6 mg/kg, ip QD fro 7 days measured after 14 days post-surgery; format: functional, organism-based; set-up: dose 5.6 mg/kg
Rattus norvegicus [21] = assay: Cognitive enhancing effect in po dosed Long-Evans rat assessed as minimal effective dose for reversal of 48 hrs delay-induced cognitive deficit measured after 1 hr by novel object recognition test; format: functional; details: read-out: MED
Rattus norvegicus [22] = assay: Cognitive enhancing effect in po dosed Long-Evans rat assessed as minimal effective dose for reversal of MK-801-induced memory deficit administered 30 mins prior to MK801 challenge measured after 1 hr by novel object recognition test; format: functional; details: read-out: MED
Rattus norvegicus [23] = assay: In vivo receptor occupancy of 5HT1A receptor Long-Evans rat […] hippocampus at 0.1 to 10 mg/kg, po by [3H]WAY100635 displacement assay; format: functional; details: dose mg/kg 0.1-10
Rattus norvegicus [24] = assay: Cognitive enhancing effect in Long-Evans rat assessed as increase in dwell time within trigger zone during acquisition training at 3 mg/kg, po by atlantis water maze test; format: functional, organism-based; set-up: dose 3 mg/kg
[25] = Half life in Sprague-Dawley rat at 3 mg/kg, po administered as single dose by LC/MS/MS analysis; format: ADME, organism-based; set-up: dose 3 mg/kg, route oral; details: in vivo
Rattus norvegicus [26] = assay: Increase in fluoxetine-induced increase in serotonin level in Sprague-Dawley rat frontal cortex at 10 mg/kg, po administered 30 mins before fluoxetine challenge measured after 20 mins by microdialysis assay relative to basal level; format: functional
[27] = molecular target: T1, 5-hydroxytryptamine receptor 1A (Homo sapiens, UniProt P08908); details: cho
T1 sequence (P08908 whole entry): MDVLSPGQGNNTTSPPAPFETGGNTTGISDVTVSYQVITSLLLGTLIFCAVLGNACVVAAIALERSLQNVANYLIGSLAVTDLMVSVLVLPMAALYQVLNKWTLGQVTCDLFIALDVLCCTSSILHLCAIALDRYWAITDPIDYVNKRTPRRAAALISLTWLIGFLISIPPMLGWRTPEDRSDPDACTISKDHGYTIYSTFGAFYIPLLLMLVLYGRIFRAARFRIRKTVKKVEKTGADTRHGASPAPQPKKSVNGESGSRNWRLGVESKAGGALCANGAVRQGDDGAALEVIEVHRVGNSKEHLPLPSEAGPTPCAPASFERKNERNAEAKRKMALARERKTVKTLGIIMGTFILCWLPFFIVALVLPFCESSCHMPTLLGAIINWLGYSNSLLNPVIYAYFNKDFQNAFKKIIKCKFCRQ
Description: (§3) Displacement of [3H]8-OH-DPAT from human 5HT1A receptor expressed in CHO cells

[28] = molecular target: T1, 5-hydroxytryptamine receptor 1A
Rattus norvegicus [29] = assay: Cognitive enhancing effect in po dosed Long-Evans rat assessed as reversal of 48 hrs delay-induced cognitive deficit at 0.1 mg/kg, po measured after 1 hr by novel object recognition test in presence of 0.5 mg/kg acetylcholinesterase inhibitor donepazil; format: functional, organism-based
Rattus norvegicus [30] = assay: (§2) AUC in Sprague-Dawley rat at 3 mg/kg, po administered as single dose by LC/MS/MS analysis; format: ADME, organism-based, Plasma; set-up: dose 3 mg/kg, route oral; details: in vivo
Rattus norvegicus [31] = assay: Cognitive enhancing effect in Long-Evans rat assessed as decrease in mean escape latency at 3 to 10 mg/kg, po by atlantis water maze test; format: functional, organism-based
[32] = Cmax in Sprague-Dawley rat at 3 mg/kg, po administered as single dose by LC/MS/MS analysis; format: ADME, organism-based; set-up: dose 3 mg/kg, route oral; details: in vivo
Rattus norvegicus [33] = assay: Cognitive enhancing effect in Long-Evans rat assessed as effect on swim speed during acquisition training at 3 to 10 mg/kg, po by atlantis water maze test; format: functional, organism-based
Rattus norvegicus [34] = assay: Inhibition of 8-OH-DPAT-induced decrease in extracellular serotonin level Sprague-Dawley rat cortex at 10 mg/kg, po administered 30 mins before 8-OH-DPAT challenge; format: functional, organism-based; set-up: dose 10 mg/kg
Rattus norvegicus [35] = assay: Effect of noncontact penile erection in Sprague-Dawley rat at 10 mg/kg, po; format: functional, organism-based; set-up: dose 10 mg/kg
Rattus norvegicus [36] = assay: Effect of noncontact penile erection in Sprague-Dawley rat at 10 mg/kg, po QD for 14 days measured after day 14; format: functional, organism-based; set-up: dose 10 mg/kg
[37] = molecular target: T1, 5-hydroxytryptamine receptor 1A; assay: biochemical
Description: as §3

[38] = as §1; format: ADME, organism-based; details: Sprague-Dawley, in vivo
[39] = as §2; format: ADME, organism-based, Plasma; set-up: dose 3 mg/kg, route oral; details: Sprague-Dawley, plasma
[40] = Clearance in Sprague-Dawley rat at 1 mg/kg, iv administered as single dose by LC/MS/MS analysis; format: ADME, organism-based; set-up: dose 1 mg/kg, route intravenous; details: in vivo

With `COc1cc(N2CCN(C3CCN(c4ccc(F)c5cccnc45)CC3)CC2)c2ncccc2c1` the Activity (Rattus norvegicus [1]) was “Active”, the Vd [2] was 2.6 L/kg and the Activity (Rattus norvegicus [3]) was “Active”. The Activity (Rattus norvegicus [4]) was “inactive”, the Activity (Rattus norvegicus [5]) was “Dose-dependent effect” and the Kp [6] was 1.3. The Activity (Rattus norvegicus [7]) was “Active”, the Tmax [8] was 0.8 h and the half-life at 20 min, 1 µM (in vitro [9]) was 6 min. The Activity (Rattus norvegicus [10]) was “inactive”, the minimal effective dose (Mus musculus) was 0.3 mg/kg and the Activity (Rattus norvegicus [11]) was “Active”. For the same molecule, the minimal effective dose (Rattus norvegicus [12]) was 0.3 mg/kg, the Activity (Rattus norvegicus [13]) was “Active” and the half-life at 20 min, 1 µM (in vitro [14]) was 2 min. The F (Rattus norvegicus [15]) was 33%, the Activity (Rattus norvegicus [16]) was “inactive” and the minimal effective dose (Rattus norvegicus [17]) was 3 mg/kg. For the same molecule, the Activity (Rattus norvegicus [18]) was 20%, the Activity (Rattus norvegicus [19]) was 54% and the Activity (Rattus norvegicus [20]) was “inactive”. The minimal effective dose (Rattus norvegicus [21]) was 0.3 mg/kg, the minimal effective dose (Rattus norvegicus [22]) was 1 mg/kg and the Activity (Rattus norvegicus [23]) was 20%. For the same molecule, the Activity (Rattus norvegicus [24]) was “inactive”, the half-life [25] was 66 min and the Activity (Rattus norvegicus [26]) was 120%. The Ki [27] was 0.4 nM, the IC50 [28] was 2.7 nM and the Activity (Rattus norvegicus [29]) was “Active”. For the same molecule, the AUC (Rattus norvegicus [30]) was 472 ng·h/mL, the Activity (Rattus norvegicus [31]) was “Active” and the Cmax [32] was 247 ng/mL. The Activity (Rattus norvegicus [33]) was “inactive”, the Activity (Rattus norvegicus [34]) was “Active” and the Activity (Rattus norvegicus [35]) was “inactive”. For the same molecule, the Activity (Rattus norvegicus [36]) was “inactive”.

For `COc1cc(N2CCN(C3CCN(c4ccc(F)c5ccc(C(F)(F)F)nc45)CC3)CC2)c2ncccc2c1`, the Ki [37] was 3.6 nM, the half-life at 20 min, 1 µM (in vitro [9]) was 3 min and the half-life at 20 min, 1 µM (in vitro [14]) was 3 min. It also gave an IC50 [28] of 7 nM.

Molecule `COc1cc(N2CCN(C3CCN(c4cccc5ccc(C)nc45)CC3)CC2)c2ncccc2c1` has a Ki [37] of 0.54 nM, a half-life at 20 min, 1 µM (in vitro [9]) of 3 min and a half-life at 20 min, 1 µM (in vitro [14]) of less than 1 min. The IC50 [28] was 47 nM.

Work on `COc1cc(N2CCN(C3CCN(c4cccc5cc(F)cnc45)CC3)CC2)c2ncccc2c1` yielded a Ki [37] of 0.79 nM, a half-life at 20 min, 1 µM (in vitro [9]) of 2 min and a half-life at 20 min, 1 µM (in vitro [14]) of 2 min. It also gave an IC50 [28] of 5.6 nM.

`COc1cc(N2CCN(C3CCN(c4cccc5cc(C)cnc45)CC3)CC2)c2ncccc2c1` gave a Ki [37] of 0.46 nM, a half-life at 20 min, 1 µM (in vitro [9]) of 2 min and a half-life at 20 min, 1 µM (in vitro [14]) of 2 min. It also gave an IC50 [28] of 5.9 nM.

For `COc1cc(N2CCN(C3CCN(c4ccc(F)c5c(OC)cc(C(F)(F)F)nc45)CC3)CC2)c2ncccc2c1`, the Vd [2] was 2.5 L/kg, the Activity (Rattus norvegicus [4]) was “inactive” and the Kp [6] was 0.2. It also gave a Tmax [8] of 2 h, a half-life at 20 min, 1 µM (in vitro [9]) of 15 min and a half-life at 20 min, 1 µM (in vitro [14]) of 12 min. For the same molecule, the bioavailability [38] was 60%, the half-life [25] was 288 min and the AUC [39] was 3760 ng·h/mL. For the same molecule, the Cmax [32] was 417 ng/mL, the clearance [40] was 9 mL/min/kg and the Activity (Rattus norvegicus [34]) was “Active”.

`COc1cc(N2CCN(C3CCN(c4cccc5c(C)cc(C)nc45)CC3)CC2)c2ncccc2c1` gave a Ki [37] of 0.63 nM, a half-life at 20 min, 1 µM (in vitro [9]) of less than 1 min and a half-life at 20 min, 1 µM (in vitro [14]) of 4 min. For the same molecule, the IC50 [28] was 4.8 nM.

`COc1cc(N2CCN(C3CCN(c4c(F)ccc5cccnc45)CC3)CC2)c2ncccc2c1` gave a Ki [37] of 276 nM, a half-life at 20 min, 1 µM (in vitro [9]) of 3 min and a half-life at 20 min, 1 µM (in vitro [14]) of 3 min. The IC50 [28] was 331 nM.

With `COc1cc(N2CCN(C3CCN(c4ccc(F)c5c(C)cc(C)nc45)CC3)CC2)c2ncccc2c1` the Ki [37] was 177 nM, the half-life at 20 min, 1 µM (in vitro [9]) was 3 min and the half-life at 20 min, 1 µM (in vitro [14]) was 3 min. The IC50 [28] was 2.8 nM.
